These results are taken from publication PMC11594329, “Development of LAT1-Selective Nuclear Medicine Therapeutics Using Astatine-211” (International Journal of Molecular Sciences, 2024).

A short description of this series: Stability of labeled compound by TLC after labeling. The conditions noted are these: after 24 h and 48 h. The series is classed as physicochemical. The method, then:
All precursors were labeled by “Shirakami Reaction” and purified using an HLB column (Waters Corp, Waltham, MA, USA). All structures are shown in Supplementary Figure S1. After purification, the solution was supplemented with 1% (v/w) of ascorbic acid. The retention time of (S)-2-amino-3-(3-(astato-^211At)-4-methoxyphenyl)-2-methylpropanic acid (^211At-AAMT-OMe-L) determined using High Performance Liquid Chromatography (HPLC) (concentration: 1 MBq/mL, Flow: 1 mL/min; absorbance = 226 nm) was 12.91 min. A COSMOSIL Packed 5C18-MS-II (4.6 mm × 150 mm) Column was used at 40 °C. Mobile phase A was 0.1% formic acid and B was acetonitrile (10–60%, 20 min). […] The stability of ^211At-AAMT-OMe-L in its unpurified state was analyzed by thin layer chromatography (TLC). BAS IP MS 2025E (GE Healthcare Technologies Inc., Chicago, IL, USA) was used for imaging. […] Because optical isomers were only examined for ^211At-AAMT-OMe-L and the remaining labeled products were all L-isomers, the DL notation was omitted when optical isomers were not compared. ^211At-AAMT-O-Me-L in the crude product solution was detected at Rf = 0.80, yielding a radiochemical yield (RCY) of 81.3%. The radiochemical yield and purity of the purified product were 81% and 98%, respectively. ^211At-AAMT-O-Me-D in the crude product solution was detected at Rf = 0.80, yielding a radiochemical yield (RCY) of 79.6%. […]

Turning to `COc1ccc(C[C@](C)(N)C(=O)O)cc1[211At]` [^211At-AAMT-O-Me-L, (S)-2-amino-3-(3-(astato-^211At)-4-methoxyphenyl)-2-methylpropanic acid], the “Stability in unpurified state by TLC” value is listed as “almost no degradation”.
